{"source": "patent US20250188044A1", "about": "(HARBIN MEDISAN PHARMACEUTICAL CO., LTD., priority 2021, published 2025)", "key": {"[1]": {"molecular_target": "T1, PPARα (Homo sapiens, UniProt Q07869)", "T1 construct": "hPPARα (279aa-580aa); expressed in transfected cells; host or cells: Cos-7", "T1 sequence (Q07869 167-468 limits assumed)": "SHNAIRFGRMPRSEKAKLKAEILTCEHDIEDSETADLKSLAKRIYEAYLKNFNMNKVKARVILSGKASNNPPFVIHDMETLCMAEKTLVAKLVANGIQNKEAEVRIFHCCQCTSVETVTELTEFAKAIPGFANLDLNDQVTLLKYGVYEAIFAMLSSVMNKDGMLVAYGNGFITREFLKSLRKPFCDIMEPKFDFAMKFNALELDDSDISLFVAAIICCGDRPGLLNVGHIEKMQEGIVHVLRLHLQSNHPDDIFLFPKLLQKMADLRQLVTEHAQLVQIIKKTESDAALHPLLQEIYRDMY", "experiment": "Gal4-PPARα(LBD) reporter gene agonistic activity assay in Cos-7 cells", "assay_type": "cell-based", "settings": "for EC50: Cos-7 cells, Gal4-PPARα(LBD) reporter, 16 h, 100% = GW7647 10 nM; for agonistic activity for PPARα (EC50 level, in words): Cos-7 reporter assay", "experimental": "(§1) Cos-7 cells (African green monkey kidney fibroblasts, commonly used tool cells) were cultured in a 10 cm cell culture dish in a DMEM complete medium containing 10% fetal bovine serum. When the cells grew to a density of about 70%, the medium was replaced with a fresh medium for later transfection. […] The plasmid working solution was then added to the cell culture dish for cell transfection. […] Test compounds were prepared into appropriate test concentrations with a complete medium and then added to the 96-well plate. […] 10 μL of lysate was pipetted into a white opaque 384-well plate, and then 10 μL of reporter gene assay buffer (purchased from Shanghai Beyotime Biological Tech. Co., Ltd.) was added. The bioluminescence was detected by using a multimode microplate reader, and the corresponding half maximal effective concentration (EC50) value was calculated according to the detection value."}, "[2]": {"molecular_target": "T2, PPARδ (Homo sapiens, UniProt Q03181)", "T2 construct": "expressed in transfected cells; host or cells: Cos-7", "T2 sequence (Q03181 139-441 limits assumed)": "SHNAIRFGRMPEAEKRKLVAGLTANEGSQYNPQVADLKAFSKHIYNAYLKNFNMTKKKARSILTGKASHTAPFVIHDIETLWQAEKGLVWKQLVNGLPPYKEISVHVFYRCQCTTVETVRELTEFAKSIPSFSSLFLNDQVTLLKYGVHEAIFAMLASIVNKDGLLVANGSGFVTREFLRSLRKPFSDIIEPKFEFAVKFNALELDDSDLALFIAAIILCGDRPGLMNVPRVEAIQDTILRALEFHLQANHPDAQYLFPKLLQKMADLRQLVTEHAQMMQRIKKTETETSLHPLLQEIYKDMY", "experiment": "Gal4-PPARδ(LBD) reporter gene agonistic activity assay in Cos-7 cells", "assay_type": "cell-based", "settings": "for agonistic activity for PPARδ (EC50 level, in words): Cos-7 reporter assay", "experimental": "as §1"}, "[3]": {"experiment": "Metabolic stability in human liver microsomes", "assay_type": "in vitro ADME", "settings": "for half-life: human liver microsomes 0.75 mg/mL, NADPH, 0-60 min", "experimental": "A 500 μM solution of the compound in acetonitrile was prepared and diluted to obtain a 1.5 μM drug working solution with a 0.1 M potassium phosphate solution. The drug working solution was co-incubated with a human liver microsome working solution at a final concentration of 0.75 mg/mL and an NADPH solution (final concentration: 550 μM), and the incubation was terminated by adding an acetonitrile solution at 0 min, 15 min, 30 min, 45 min, and 60 min. The residual amount of the compound that remained in the system at each time point was detected by using LC/MS. The absolute value k of the slope was determined by plotting the natural logarithm of the percentage of the residual amount of the compound with the time, and the calculation was performed according to the formula: T1/2 (half-life)=ln2/k=0.693/k."}, "[4]": {"experiment": "Pharmacokinetic evaluation in mice", "assay_type": "in vivo, C57BL/6J mice", "settings": "for AUC(0-inf): read-out: Area under the curve AUC(0-∞); for half-life: read-out: Half-life T1/2 (converted); for Cmax: read-out: Peak concentration Cmax; for Tmax: read-out: Time-to-peak Tmax", "source_text": "Animals: 6 male C57BL/6J mice, SPF grade, sourced from the animal repository of Shanghai Medicilon research institution.\nGrouping: Mice were divided into 2 groups of 3 mice each, one group was an oral administration group and the other group was an intravenous injection administration group. The dose in the oral administration group was 10 mpk, and the dose in the intravenous injection group was 2 mpk.\nExperimental method: After the intravenous injection administration group was subjected to administration by injection via the tail vein, approximately 0.03 mL of blood was collected via the orbit at 0.083 h, 0.25 h, 0.5 h, 1 h, 2 h, 4 h, 8 h, and 24 h, and an ethylenediaminetetraacetic acid dipotassium salt was quickly added for anticoagulation and the blood was placed on ice after the blood collection. The mice in the oral administration group were fasted for 12 h before administration and fed 4 h after administration; after oral administration, approximately 0.03 mL of blood was collected via the orbit at 0.25 h, 0.5 h, 1 h, 2 h, 4 h, 6 h, 8 h, and 24 h, and an ethylenediaminetetraacetic acid dipotassium salt was quickly added for anticoagulation and the blood was placed on ice after the blood collection. All samples were centrifuged at 18,000 g for 7 min in a low-temperature centrifuge, and plasma was isolated. The content of the compound in the plasma was determined by LC-MS/MS-18, and relevant pharmacokinetic parameters were calculated from the plasma concentration data at different time points."}, "[5]": {"test_system": "HepG2 cells", "experiment": "Lipid metabolism-associated gene expression of HepG2 cells (qPCR)", "assay_type": "cell-based, human", "settings": "8 nM, nM, and 200 nM, 12 h, vs. blank control (FIGS. 1 and 2)", "experimental": "HepG2 cells (human hepatoma cells) were cultured in a 6-well cell culture plate and subjected to adherent culture overnight. […] The old medium was discarded and replaced with drug-containing medium of different concentrations (complete medium without the compound for the blank control group). After dosing, the cells were incubated for 12 h. The medium was discarded and total RNA was extracted by the phenol-chloroform method. After reverse transcription, the real-time quantitative fluorescent PCR experiment (RNA extraction, reverse transcription, quantitative PCR reagents were all purchased from Nanjing Vazyme Biotech Co., Ltd.) was performed using ACTB as an internal reference, and the expression of PDK4, ACADVL, and CPT1A, which are important genes in oxidative metabolism of lipids, was detected according to the steps in the product instructions (the primer sequences are shown in Table 7). […] Some other compounds of the present invention also have similar activity."}, "[6]": {"test_system": "THP1 cells", "experiment": "LPS-induced inflammation-associated gene expression of THP1 cells (qPCR)", "assay_type": "cell-based, human", "settings": "THP1 monocyte-derived macrophages, 8, 40, and 200 nM, 6 h, qPCR (FIG. 3)", "experimental": "THP1 cells (human monocytes) were cultured in a 6-well cell culture plate in a medium containing 100 ng/mL phorbol ester (purchased from MCE) and stimulated for differentiation for 48 h.\nThe medium was replaced with a fresh complete medium for the blank control group, the medium was replaced with a complete medium containing […] LPS for the LPS group, and the medium was replaced with 8, 40, and 200 nM drug-containing media prepared with a complete medium containing […] LPS for the administration group. After 6 h of treatment, the medium was discarded. Quantitative PCR was performed according to the procedures in Example 207 to detect the expression of IL6 and IL12B, which are inflammatory factors playing an important role in inflammatory response (the primer sequences are shown in Table 8). […] Some other compounds of the present invention also have similar anti-inflammatory activity."}, "[7]": {"experiment": "Pharmacokinetic evaluation in rats", "assay_type": "in vivo, SD rats", "experimental": "Animals: 6 male SD rats, SPF grade, sourced from the animal repository of Shanghai Medicilon research institution.\nThe dose in the oral administration group was 10 mpk, and the dose in the intravenous injection group was 2 mpk.\nAll samples were centrifuged at 18,000 g for 7 min in a low-temperature centrifuge, and plasma was isolated. The content of the compound in the plasma was determined by LC-MS/MS-18, and relevant pharmacokinetic parameters were calculated from the plasma concentration data at different time points."}, "[8]": {"settings": "male, C57BL/6J, mouse, plasma, 2 mg/kg, intravenous injection, 2 mpk"}, "[9]": {"settings": "male, C57BL/6J, mouse, plasma, 10 mg/kg, oral administration, 10 mpk"}}, "note": "Read-outs that look alike come from different tables or passages of the source.", "data": [{"smiles": "Cc1cc(Cn2ncn(-c3ccc(C(F)(F)F)cc3)c2=O)cc(C)c1OC(C)(C)C(=O)O", "note": "[Compound 57, 2-(2,6-Dimethyl-4-((5-oxo-4-(4-(trifluoromethyl)phenyl)-4,5-dihydro-1H-1,2,4-triazol-1-yl)methyl)phenoxy)-2-methylpropionic acid]", "values": [{"measurement": "EC50", "setting": "[1]", "value": 26, "unit": "nM"}, {"measurement": "agonistic activity for PPARα (EC50 level, in words)", "setting": "[1]", "value": "at nanomolar levels"}, {"measurement": "EC50", "setting": "[2]", "value": 2, "unit": "nM"}, {"measurement": "agonistic activity for PPARδ (EC50 level, in words)", "setting": "[2]", "value": "at nanomolar levels"}, {"measurement": "metabolic stability in human liver microsomes (in words)", "setting": "[3]; human liver microsomes", "value": "very good metabolic stability in human liver microsomes"}, {"measurement": "half-life", "setting": "[3]", "value": "> 120", "unit": "min"}, {"measurement": "pharmacokinetic properties (in words)", "setting": "[4]", "value": "good pharmacokinetic properties"}, {"measurement": "AUC(0-inf)", "setting": "[4]; [8]", "value": "4360 ± 522", "unit": "ng·h/mL"}, {"measurement": "half-life", "setting": "[4]; [8]", "value": "572 ± 197", "unit": "min"}, {"measurement": "Cmax", "setting": "[4]; [8]", "value": "7240 ± 269", "unit": "ng/mL"}, {"measurement": "Tmax", "setting": "[4]; [8]", "value": 4.8, "unit": "min"}, {"measurement": "AUC(0-inf)", "setting": "[4]; [9]", "value": "18600 ± 2760", "unit": "ng·h/mL"}, {"measurement": "bioavailability", "setting": "[4]; male, C57BL/6J, mouse, plasma, 10 mg/kg, oral administration, 10 mpk, read-out: Bioavailability F", "value": 87.3, "unit": "%"}, {"measurement": "half-life", "setting": "[4]; [9]", "value": "445 ± 123", "unit": "min"}, {"measurement": "Cmax", "setting": "[4]; [9]", "value": "14000 ± 2050", "unit": "ng/mL"}, {"measurement": "Tmax", "setting": "[4]; [9]", "value": 15, "unit": "min"}, {"measurement": "expression of PDK4, ACADVL, and CPT1A", "setting": "[5]", "value": "improve the expression of PDK4, ACADVL, and CPT1A in a dose-dependent manner with significance"}, {"measurement": "LPS-induced expression of IL6 and IL12B", "setting": "[6]", "value": "resist LPS-induced up-regulation of IL6 and IL12B of macrophages"}]}, {"smiles": "Cc1cc(Cn2ncn(-c3ccc(OC(F)(F)F)cc3)c2=O)cc(C(F)(F)F)c1OC(C)(C)C(=O)O", "note": "[Compound 163, 2-Methyl-2-(2-methyl-4-((5-oxo-4-(4-(trifluoromethoxy)phenyl)-4,5-dihydro-1H-1,2,4-triazol-1-yl)methyl)-6-(trifluoromethyl)phenoxy)propionic acid]", "values": [{"measurement": "EC50", "setting": "[1]", "value": 35, "unit": "nM"}, {"measurement": "agonistic activity for PPARα (EC50 level, in words)", "setting": "[1]", "value": "at nanomolar levels"}, {"measurement": "EC50", "setting": "[2]", "value": 6, "unit": "nM"}, {"measurement": "agonistic activity for PPARδ (EC50 level, in words)", "setting": "[2]", "value": "at nanomolar levels"}, {"measurement": "half-life", "setting": "[3]", "value": "> 120", "unit": "min"}, {"measurement": "pharmacokinetic properties (in words)", "setting": "[7]", "value": "relatively good pharmacokinetic properties"}, {"measurement": "Area under the curve AUC(0-∞)", "setting": "[7]; intravenous injection, 2 mpk", "value": "15851.97 ± 3557.93", "unit": "ng·h/mL"}, {"measurement": "Half-life T1/2", "setting": "[7]; intravenous injection, 2 mpk", "value": "12.71 ± 8.67", "unit": "h"}, {"measurement": "Peak concentration Cmax", "setting": "[7]; intravenous injection, 2 mpk", "value": "10864.30 ± 719.85", "unit": "ng/mL"}, {"measurement": "Time-to-peak Tmax", "setting": "[7]; intravenous injection, 2 mpk", "value": "4.8 ± 0", "unit": "min"}, {"measurement": "Area under the curve AUC(0-∞)", "setting": "[7]; oral administration, 10 mpk", "value": "39483.83 ± 5363.60", "unit": "ng·h/mL"}, {"measurement": "Bioavailability F", "setting": "[7]; oral administration, 10 mpk", "value": 53.24, "unit": "%"}, {"measurement": "Half-life T1/2", "setting": "[7]; oral administration, 10 mpk", "value": "6.86 ± 0.34", "unit": "h"}, {"measurement": "Peak concentration Cmax", "setting": "[7]; oral administration, 10 mpk", "value": "5474.28 ± 1232.94", "unit": "ng/mL"}, {"measurement": "Time-to-peak Tmax", "setting": "[7]; oral administration, 10 mpk", "value": "15 ± 0", "unit": "min"}]}]}
